In PubChem BioAssay (NCI):
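These data come from cells grown in 96-well plates and exposed to compound for 48 hours at five concentrations. At the TGI there is no net growth.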

Tests used:
Assay in all cases: NCI tumour cell line growth inhibition, 48 h
DMS 273 small cell lung = test system: DMS 273 small cell lung
DMS 114 small cell lung = test system: DMS 114 small cell lung
LXFL 529 NSCLC = test system: LXFL 529 NSCLC
RXF-631 renal = test system: RXF-631 renal
P388 leukemia = test system: P388 leukemia
SN12K1 renal = test system: SN12K1 renal
P388/ADR leukemia = test system: P388/ADR leukemia

Row | Structure (SMILES) | TGI (DMS 273 small cell lung) | TGI (DMS 114 small cell lung) | TGI (LXFL 529 NSCLC) | TGI (RXF-631 renal) | TGI (P388 leukemia) | TGI (SN12K1 renal) | TGI (P388/ADR leukemia)
1 | Cc1cccc(=O)c([O-])c1.Cc1cccc(=O)c([O-])c1.Cc1cccc(=O)c([O-])c1.Cc1cccc(=O)c([O-])c1.[Th+4] | 33 µM | 15.6 µM | > 100 µM | – | – | – | –
2 | O=P1(N(CCCl)CCCl)NCCCO1 (stereo not drawn) | > 250 µM | > 250 µM | > 250 µM | > 250 µM | > 250 µM | > 250 µM | > 229 µM
3 | Cc1ccc(Cl)c2c(=O)cc(-c3ccccc3)[nH]c12 | > 100 µM | – | > 100 µM | – | – | – | –
4 | COc1ccccc1NC(=O)CSC(N)=O | > 100 µM | > 100 µM | – | – | – | – | –
5 | CCOC(=O)/C(C1=N[C@H](C(=O)OCC)CS1)=C(\O)c1ccccc1 | – | – | > 100 µM | > 100 µM | – | – | –
6 | CC(=O)CCCCCCCCCCCC[C@@H]1CC[C@H](C)[C@H](O)N1 | > 100 µM | > 100 µM | > 100 µM | – | – | – | –
7 | CC(C)NCCNC(=O)c1ccccc1Nc1c(Cl)cccc1Cl | 26.6 µM | 23.4 µM | 31.5 µM | – | – | – | –
8 | O=C(NCCNCCO)N/N=C/c1ccccc1 | > 100 µM | > 100 µM | > 100 µM | – | – | – | –
9 | O=c1n(C2CCCCC2)c(=C(Cl)Cl)c(=C(Cl)Cl)n1C1CCCCC1 | > 100 µM | > 100 µM | – | – | – | – | –
10 | O=C1C(Cl)C(c2cccc(O)c2)N1n1cnc2ccccc2c1=O (stereo not drawn) | > 100 µM | > 100 µM | > 100 µM | – | – | – | –
11 | NNc1nnc(-c2ccccc2)nc1Cc1ccccc1 | > 100 µM | 17 µM | 78.9 µM | – | – | – | –
